Measured values as given in patent publication EP0012435A2, “Isoxazole derivatives, process for their preparation, medicines containing them and intermediates required in this process” (HOECHST AKTIENGESELLSCHAFT, priority 1978, dated 1980).
Marks after values point to notes of the source that are not given here.

How the values were obtained:
[1] = test system: männliche Ratten eines Wistar-Lewis-Stammes; test: Adjuvant arthritis, preventive test (method of Pearson); assay type: in vivo; settings: for ED50: Rattus norvegicus, 408 h, read-out: Adjuvans-Arthritis ED50; for Therapeut. Index UD50 / ED50: ratio of ulcerogenic UD50 to adjuvant arthritis ED50
Description: 1. Adjuvans-Arthritis, praeventive Testung
Die Untersuchungen wurden nach der Methode von Pearson durchgeführt (Arthrit. Rheum. 2, 440 (1959)). Als Versuchstiere dienten männliche Ratten eines Wistar-Lewis-Stammes im Körpergewicht zwischen 130 und 200 g. Die zu prüfenden Verbindungen wurden täglich vom 1. bis 17. Versuchstag oral appliziert. Tiere einer Kontrollgruppe erhielten nur das Lösungsmittel. Als Wirkungskriterium diente die Herabsetzung der Pfoten-Volumenzunahme gegenüber der unbehandelten Kontrollgruppe. Die ED50-Werte wurden graphisch aus der Dosiswirkungskurve bestimmt.

[2] = Ulcerogenic effect (gastric mucosal lesions after oral dose); assay type: in vivo, Ratten; settings: rat, gastric mucosa, fasted rats, killed 24 h after dose, UD50 by Litchfield and Wilcoxon, read-out: Ulzerogenität UD50
Description: (§1) Die Untersuchungen erfolgten an männlichen Sprague-Dawley Ratten im Körpergewicht zwischen 200 und 300 g. 48 Stunden vor Applikation der Testsubstanzen bis zum Töten der Tiere wurde das Futter entzogen, bei freiem Zugang zum Trinkwasser. Die Ratten wurden 24 Stunden nach oraler Gabe getötet, der Magen entommen, unter fließendem Wasser gereinigt und auf Schleimhautlösionen inspiziert. Als Ulzera galten alle makroskopisch sichtbaren Läsionen. Bestimmt wurde der Anteil der Tiere mit Ulzera pro dosi und die UD50 nach Litchfield und Wilcoxon (J. Pharmacol. exp. Ther. 96, 99 (1949)).

[3] = Acute toxicity; settings: mouse, in vivo, ip; NMRI mice, intraperitoneal, mortality within 7 days; read-out: Toxizität LD50-Bereich (Maus i.p.)
Description: Die Bestimmung der LD50-Bereiche erfolgte standardgemäß über die innerhalb von 7 Tagen bei NMRI-Mäusen nach intraperitonealer Gabe auftretende Mortalität.

[4] = test system: männlichen Sprague-Dawley Ratten; test: Ulcerogenic effect (gastric mucosal lesions after oral dose); assay type: in vivo; settings: fasted rats, killed 24 h after dose, UD50 by Litchfield and Wilcoxon
Description: as §1

[5] = test system: NMRI-Mäusen; settings: literature value (Barnes and Eltherington, Drug Dosage in Laboratory Animals, 1973, p. 199); cited from earlier work
[6] = oral, daily from day 1 to 17, reduction of paw volume increase vs. control, ED50 read graphically from dose-response curve

**Q.** Which results are given for `CCc1oncc1C(=O)Nc1ccc(C(F)(F)F)cc1` [Beispiel 1, N-(4-Trifluormethylphenyl)-5-äthylisoxazol-4-carboxamid]?
**A.** ED50 [1, 6]: 6 mg/kg; Therapeut. Index UD50 / ED50 [1]: 12; TD50 at 24 h [2]: 70 mg/kg; LD50 at 168 h [3]: 150 to 300 mg/kg

**Q.** For `O=C(Nc1ccc(C(F)(F)F)cc1)c1cnoc1C(F)(F)F` [Beispiel 6, N-(4-Trifluormethylphenyl)-5-trifluormethylisoxazol-4-carboxamid], which ED50 [1, 6] is on record?
**A.** 3 mg/kg

**Q.** What about the “Therapeut. Index UD50 / ED50” value [1] of the same compound?
**A.** 27

**Q.** What about the TD50 at 24 h [2] of the same compound?
**A.** 80 mg/kg

**Q.** For `Cc1oncc1C(=O)Nc1ccc(Oc2ccc(C(F)(F)F)cc2)cc1` [Beispiel 10, N-[4-(4-Trifluormethylphenoxy)-phenyl]-5-methylisoxazol-4-carboxamid], which ED50 [1, 6] is on record?
**A.** 8 mg/kg

**Q.** What about the “Therapeut. Index UD50 / ED50” value [1] of the same compound?
**A.** 29

**Q.** And the TD50 at 24 h [2]?
**A.** 230 mg/kg

**Q.** And the LD50 at 168 h [3]?
**A.** 150 to 300 mg/kg

**Q.** What does the source list for `Cc1oncc1C(=O)Nc1ccc(F)cc1` [P 25 24 959 Nr. 10, N-(4-Fluorphenyl)-5-methylisoxazol-4-carboxamid, reference compound]?
**A.** ED50 [1, 6]: 15 mg/kg; Therapeut. Index UD50 / ED50 [1]: 17; TD50 at 24 h [2]: 250 mg/kg; LD50 at 168 h [3]: 200 to 400 mg/kg

**Q.** For “Phenylbutazon [Phenyl=butazon, reference compound]”, which “Adjuvans-Arthritis ED50” value ([1]; oral, daily from day 1 to 17, reduction of paw volume increase vs. control, ED50 read graphically from dose-response curve, 24480 min) is on record?
**A.** 37 mg/kg

**Q.** And the “Ulzerogenität UD50” value [4]?
**A.** 100 mg/kg

**Q.** What about the “Toxizität LD50 (Maus i.p.)” value [5] of the same compound?
**A.** LD50 = 336^* mg/kg
